Assay results published in article PMC5337940, “Sansanmycin natural product analogues as potent and selective anti-mycobacterials that inhibit lipid I biosynthesis” (Nature Communications, 2017).
Values after ≈ are worked out from the molar mass of the structure shown. Like-named read-outs stand apart in the source and are kept apart here.

Legend:
in vitro [1] = format: in vitro ADME; settings: plasma
Excerpt: Human blood from nonidentifiable volunteer donors was sourced from the Australian Red Cross Blood Service under a supply agreement approved by the Monash Human Research Ethics Committee. Mouse blood was collected in-house under tissue harvesting protocols approved by the Monash Institute of Pharmaceutical Sciences Animal Ethics Committee. Pooled human and Swiss outbred mouse plasma samples were thawed and spiked with test compound solutions prepared in DMSO/acetonitrile/water (20:40:40) to provide a final compound concentration of 1,000 ng ml^−1 and final DMSO and acetonitrile concentrations of 0.2% and 0.4% (v/v), respectively. Plasma was vortex mixed and aliquots (50 μl) were transferred to fresh microcentrifuge tubes and incubated at 37 °C. At various time points over the 6 h incubation period, duplicate plasma samples were removed and immediately snap-frozen in dry ice. All samples were stored frozen at −80 °C until analysis by LC–MS. Samples were processed by protein precipitation using a two-fold excess of acetonitrile followed by centrifugation. Analysis of the supernate was conducted using a Waters (Milford, MA) Acquity UPLC coupled to a Waters Micromass Quattro Premier mass spectrometer operated in positive electrospray ionization mode with multiple reaction monitoring. The cone voltage was 45 V, collision energy was 30, 30 and 40 V for 25, 36 and 37, respectively, and m/z transitions were 782.30>126.06 (25), 826.32>170.16 (36) and 888.39>126.06 (37). Processed samples (3 μl) were injected onto a Supelco Ascentis Express RP Amide column (50 × 2.1 mm, 2.7 μm) and analytes eluted using a water/acetonitrile (each containing 0.05% formic acid) gradient over 4 min with a flow rate was 0.4 ml min^−1. Sample concentrations were quantitated by comparison to a calibration curve prepared in blank human or mouse plasma.

in vitro [2] = format: in vitro ADME; settings: microsomes; for Average half-life: 0.5 μM; for half-life at 0.5 μM: Average half-life
Method: The metabolic stability was assessed by incubating each test compound (0.5 μM) in duplicate with human and mouse liver microsomes (XenoTech, Kansas City, KS) at 37 °C and 0.4 mg ml^−1 microsomal protein. The metabolic reaction was initiated by the addition of an NADPH-regenerating system and quenched at various time points over a 60 min incubation period by the addition of acetonitrile containing diazepam as internal standard. Control samples (containing no NADPH) were included and quenched at 2, 30 and 60 min to monitor for potential degradation in the absence of cofactor. Samples were centrifuged and the supernatant analysed by LCMS. Analysis was conducted using a Waters Acquity UPLC coupled to a Waters Xevo G2 QTOF mass spectrometer operated in positive electrospray ionization MS^E mode with a cone voltage of 30 V. Samples (5 μl) were injected onto an Ascentis Express Amide column (50 × 2.1 mm, 2.7 μm) and eluted using a water/acetonitrile (both containing 0.05% formic acid) gradient over 4 min at a flow rate of 0.4 ml min^−1. Degradation rate half-lives and in vitro intrinsic clearance values were determined from the first order degradation profiles.

Mtb H37Ra in THP-1 cells = assay: Intracellular assay, Mtb-infected THP-1 macrophages, CFU count; settings: read-out: IC50 intracellular anti-mycobacterial activity; THP-1 macrophages infected with Mtb (H37Ra), average of 2 independent experiments
HEK293 cells = assay: Cytotoxicity counter-screen, resazurin reduction microplate assay; format: cell-based; settings: Homo sapiens, tested up to 200 μM, read-out: MIC50 (HEK293)
Mtb MurX [3] = molecular target: T1, Mtb MurX (Mycobacterium tuberculosis, UniProt P9WMW7); assay: biochemical
T1 sequence (P9WMW7 whole entry): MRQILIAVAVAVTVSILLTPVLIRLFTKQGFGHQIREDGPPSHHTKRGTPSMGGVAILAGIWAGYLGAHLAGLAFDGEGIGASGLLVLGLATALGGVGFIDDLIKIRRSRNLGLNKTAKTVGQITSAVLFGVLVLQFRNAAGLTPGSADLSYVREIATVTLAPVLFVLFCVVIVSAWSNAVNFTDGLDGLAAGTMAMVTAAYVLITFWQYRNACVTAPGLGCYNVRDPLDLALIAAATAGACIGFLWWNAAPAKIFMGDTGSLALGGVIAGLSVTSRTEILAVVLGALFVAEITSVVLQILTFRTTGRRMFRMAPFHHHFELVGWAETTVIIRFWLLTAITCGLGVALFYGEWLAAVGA

Mtb MurX [4] = molecular target: T1, Mtb MurX; assay: Radiochemical (TLC) MurX-MurG coupled inhibition assay in Mtb mc2 6230 membranes; format: biochemical; settings: for inhibition at 0.2 µM: 200 nM inhibitor, decrease in lipid II formation
Mtb H37Rv = assay: Resazurin reduction microplate assay, growth inhibition of Mtb H37Rv; format: cell-based, Mycobacterium tuberculosis; settings: Mycobacterium tuberculosis, H37RV
H37Rv = system: H37Rv; design: method as in Xie et al. 14, 15; settings: isolated natural products; ref Xie et al. 14, 15; cited from earlier work
[5] = Mtb H37Rv, read-out: MIC50 against Mtb
[6] = average of two independent experiments, each in triplicate, read-out: MIC50 Mtb H37Rv

Compound	half-life at 1000 ng/ml (in vitro [1]; Swiss outbred, mouse)	half-life at 1000 ng/ml (in vitro [1]; human)	microsomal CLint at 0.5 μM (in vitro [2]; human)	Average half-life (in vitro [2]; human)	half-life at 0.5 μM (in vitro [2]; human)	microsomal CLint at 0.5 μM (in vitro [2]; mouse)	Average half-life (in vitro [2]; mouse)	half-life at 0.5 μM (in vitro [2]; mouse)	IC50 (Mtb H37Ra in THP-1 cells)	CC50 (HEK293 cells)	IC50 (Mtb MurX [3])	IC50 (Mtb MurX [4])	inhibition at 0.2 µM (Mtb MurX [4])	MIC50 (Mtb H37Rv; [5])	MIC50 (Mtb H37Rv; [6])	MIC (H37Rv) (H37Rv)	IC50 (Mtb MurX [3]; read-out: IC50 Mtb MurX, fluorescence assay)
C[C@@H]([C@H](NC(=O)[C@H](Cc1ccc2ccccc2c1)NC(=O)N[C@@H](Cc1c[nH]c2ccccc12)C(=O)O)C(=O)NC[C@H]1C[C@@H](O)[C@H](n2ccc(=O)[nH]c2=O)O1)N(C)C(=O)CN [Compound 36]	> 7 h	> 7 h	< 7 µL/min/mg	> 2.67 h	> 4.12 h	10 µL/min/mg	> 2.67 h	2.77 h	4.33 µM	> 200 µM	0.014 µM	0.048 µM	100%	0.18 µM (≈ 0.149 µg/mL)	0.18 ± 0.02 µM (≈ 0.149 µg/mL)		
CSCC[C@H](NC(=O)N[C@@H](Cc1c[nH]c2ccccc12)C(=O)O)C(=O)N[C@H](C(=O)N/C=C1/C[C@@H](O)[C@H](n2ccc(=O)[nH]c2=O)O1)[C@H](C)N(C)C(=O)[C@@H](N)c1cccc(O)c1 [Compound 1, Sansanmycin A]																18.5 µM (≈ 15.7 µg/mL)	
CC(C)C[C@H](NC(=O)N[C@@H](Cc1c[nH]c2ccccc12)C(=O)O)C(=O)N[C@H](C(=O)N/C=C1/C[C@@H](O)[C@H](n2ccc(=O)[nH]c2=O)O1)[C@H](C)N(C)C(=O)[C@@H](N)c1cccc(O)c1 [Compound 2, Sansanmycin B]																9.5 µM (≈ 7.9 µg/mL)	
C[C@@H]([C@H](NC(=O)[C@H](CC[S+](C)[O-])NC(=O)N[C@@H](Cc1c[nH]c2ccccc12)C(=O)O)C(=O)N/C=C1/C[C@@H](O)[C@H](n2ccc(=O)[nH]c2=O)O1)N(C)C(=O)[C@@H](N)c1cccc(O)c1 (stereo partly shown) [Compound 3, Sansanmycin C]																> 36.3 µM	
tunicamycin [reference compound]																	0.189 µM
C[C@@H]([C@H](NC(=O)[C@H](CC1CCCCC1)NC(=O)N[C@@H](Cc1c[nH]c2ccccc12)C(=O)O)C(=O)NC[C@H]1C[C@@H](O)[C@H](n2ccc(=O)[nH]c2=O)O1)N(C)C(=O)[C@@H](N)Cc1cccc(O)c1 [Compound 37]	> 7 h	> 7 h	10 µL/min/mg	> 2.67 h	2.9 h	7 µL/min/mg	> 2.67 h	3.88 h	0.11 µM	> 200 µM	0.016 µM	0.041 µM	100%	0.037 µM (≈ 0.0329 µg/mL)	0.037 ± 0.06 µM (≈ 0.0329 µg/mL)		
C[C@@H]([C@H](NC(=O)[C@H](CC1CCCCC1)NC(=O)N[C@@H](Cc1c[nH]c2ccccc12)C(=O)O)C(=O)NC[C@H]1C[C@@H](O)[C@H](n2ccc(=O)[nH]c2=O)O1)N(C)C(=O)CN [Compound 25]	> 7 h	> 7 h	< 7 µL/min/mg	> 2.67 h	> 4.12 h	< 7 µL/min/mg	> 2.67 h	> 4.12 h	1.57 µM	> 200 µM	0.03 µM	0.054 µM	100%	0.08 µM (≈ 0.0625 µg/mL)	0.08 ± 0.02 µM (≈ 0.0625 µg/mL)		
